Test results from ChEMBL document CHEMBL6087462, “Cuminaldehyde Potentiates Antiproteolytic Peptide Efficacy via Parallel Pathways of Enhanced Inner Membrane-Damaging Activity and Inhibition of Bacterial Energy Metabolism” (J Med Chem, 2025).

How the values were obtained:
Salmonella typhimurium [1] = assay: Synergistic antimicrobial activity against Salmonella typhimurium ATCC 14028 assessed as fractional inhibitory concentration by checkerboard broth microdilution assay; type: functional, Salmonella enterica subsp. enterica serovar Typhimurium
Escherichia coli [2] = assay: Synergistic antimicrobial activity against Escherichia coli 25922 assessed as fractional inhibitory concentration index in presence of carvacrol by checkerboard broth microdilution assay; type: functional
Enterococcus faecalis [3] = assay: Synergistic antimicrobial activity against Enterococcus faecalis ATCC 29212 assessed as fractional inhibitory concentration by checkerboard broth microdilution assay; type: functional
Escherichia coli [4] = assay: Synergistic antimicrobial activity against Escherichia coli 078 assessed as fractional inhibitory concentration index in presence of citronellal by checkerboard broth microdilution assay; type: functional, 78
Pseudomonas aeruginosa [5] = assay: Antimicrobial activity against Pseudomonas aeruginosa ATCC 27853 assessed as cuminaldehyde MIC by CLSI based broth microdilution method; type: functional
Escherichia coli [6] = assay: Drug resistance, ratio of MIC for Escherichia coli ATCC 25922 after 30 passages to MIC for Escherichia coli ATCC 25922 […] after initial exposure; type: functional
Escherichia coli [7] = assay: Synergistic antimicrobial activity against Escherichia coli K99 assessed as fractional inhibitory concentration index in presence of cuminaldehyde by checkerboard broth microdilution assay; type: functional
Escherichia coli [8] = assay: Synergistic antimicrobial activity against Escherichia coli K88 assessed as fractional inhibitory concentration index in presence of carvacrol by checkerboard broth microdilution assay; type: functional
Escherichia coli [9] = assay: Synergistic antimicrobial activity against Escherichia coli 078 assessed as fractional inhibitory concentration index in presence of citral by checkerboard broth microdilution assay; type: functional, 78
Staphylococcus aureus [10] = assay: Synergistic antimicrobial activity against Staphylococcus aureus 43300 assessed as fractional inhibitory concentration index in presence of thymol by checkerboard broth microdilution assay; type: functional
Enterococcus faecalis [11] = assay: Synergistic antimicrobial activity against Enterococcus faecalis 29212 assessed as fractional inhibitory concentration index in presence of perillaldehyde by checkerboard broth microdilution assay; type: functional
Escherichia coli [12] = assay: Synergistic antimicrobial activity against Escherichia coli 25922 assessed as fractional inhibitory concentration index in presence of perillaldehyde by checkerboard broth microdilution assay; type: functional
Escherichia coli [13] = assay: Synergistic antimicrobial activity against Escherichia coli UB1005 assessed as fractional inhibitory concentration index in presence of perillaldehyde by checkerboard broth microdilution assay; type: functional
Salmonella typhimurium [14] = assay: Synergistic antimicrobial activity against Salmonella typhimurium 7731 assessed as fractional inhibitory concentration index in presence of citronellal by checkerboard broth microdilution assay; type: functional, Salmonella enterica subsp. enterica serovar Typhimurium
Enterococcus faecalis [15] = assay: Antimicrobial activity against Enterococcus faecalis ATCC 29212 assessed as cuminaldehyde MIC by CLSI based broth microdilution method; type: functional
Pseudomonas aeruginosa [16] = assay: Antimicrobial activity against Pseudomonas aeruginosa ATCC 27853 assessed as reduction in microbial growth by CLSI based broth microdilution method; type: functional
Escherichia coli [17] = assay: Antimicrobial activity against Escherichia coli ATCC 25922 assessed as reduction in microbial growth in presence of cuminaldehyde by CLSI based broth microdilution method; type: functional
Salmonella typhimurium [18] = assay: Synergistic antimicrobial activity against Salmonella typhimurium 7731 assessed as fractional inhibitory concentration index in presence of thymol by checkerboard broth microdilution assay; type: functional, Salmonella enterica subsp. enterica serovar Typhimurium
Escherichia coli [19] = assay: Synergistic antimicrobial activity against Escherichia coli K99 assessed as fractional inhibitory concentration index in presence of carvacrol by checkerboard broth microdilution assay; type: functional
Staphylococcus aureus [20] = assay: Synergistic antimicrobial activity against Staphylococcus aureus 25923 assessed as fractional inhibitory concentration index in presence of carvacrol by checkerboard broth microdilution assay; type: functional
Escherichia coli [21] = assay: Synergistic antimicrobial activity against Escherichia coli K88 assessed as fractional inhibitory concentration by checkerboard broth microdilution assay; type: functional
Salmonella typhimurium [22] = assay: Synergistic antimicrobial activity against Salmonella typhimurium 14028 assessed as fractional inhibitory concentration index in presence of carvacrol by checkerboard broth microdilution assay; type: functional, Salmonella enterica subsp. enterica serovar Typhimurium
Salmonella typhimurium [23] = assay: Synergistic antimicrobial activity against Salmonella typhimurium 7731 assessed as fractional inhibitory concentration index in presence of cuminaldehyde by checkerboard broth microdilution assay; type: functional, Salmonella enterica subsp. enterica serovar Typhimurium
[24] = Antimicrobial activity against Salmonella enterica subsp. enterica serovar Pullorum ATCC 7913 assessed as reduction in microbial growth by CLSI based broth microdilution method; type: functional
Staphylococcus aureus [25] = assay: Antimicrobial activity against Staphylococcus aureus ATCC 29213 assessed as cuminaldehyde MIC by CLSI based broth microdilution method; type: functional
Staphylococcus aureus [26] = assay: Synergistic antimicrobial activity against Staphylococcus aureus 43300 assessed as fractional inhibitory concentration index in presence of perillaldehyde by checkerboard broth microdilution assay; type: functional
Escherichia coli [27] = assay: Synergistic antimicrobial activity against Escherichia coli 25922 assessed as fractional inhibitory concentration index in presence of citral by checkerboard broth microdilution assay; type: functional
Escherichia coli [28] = assay: Synergistic antimicrobial activity against Escherichia coli K99 assessed as fractional inhibitory concentration index in presence of citronellal by checkerboard broth microdilution assay; type: functional
Pseudomonas aeruginosa [29] = assay: Synergistic antimicrobial activity against Pseudomonas aeruginosa ATCC 27853 assessed as fractional inhibitory concentration by checkerboard broth microdilution assay; type: functional
Escherichia coli [30] = assay: Synergistic antimicrobial activity against Escherichia coli UB1005 assessed as fractional inhibitory concentration index in presence of citronellal by checkerboard broth microdilution assay; type: functional
Escherichia coli [31] = assay: Antimicrobial activity against Escherichia coli K99 assessed as reduction in microbial growth in presence of cuminaldehyde by CLSI based broth microdilution method; type: functional
Escherichia coli [32] = assay: Synergistic antimicrobial activity against Escherichia coli UB1005 assessed as fractional inhibitory concentration index in presence of carvacrol by checkerboard broth microdilution assay; type: functional
Salmonella typhimurium [33] = assay: Antimicrobial activity against Salmonella typhimurium ATCC 14028 assessed as cuminaldehyde MIC by CLSI based broth microdilution method; type: functional, Salmonella enterica subsp. enterica serovar Typhimurium; conditions: Salmonella enterica
Enterococcus faecalis [34] = assay: Synergistic antimicrobial activity against Enterococcus faecalis 29212 assessed as fractional inhibitory concentration index in presence of citronellal by checkerboard broth microdilution assay; type: functional
Staphylococcus aureus [35] = assay: Synergistic antimicrobial activity against Staphylococcus aureus 29213 assessed as fractional inhibitory concentration index in presence of perillaldehyde by checkerboard broth microdilution assay; type: functional
Salmonella typhimurium [36] = assay: Synergistic antimicrobial activity against Salmonella typhimurium ATCC 7731 assessed as fractional inhibitory concentration by checkerboard broth microdilution assay; type: functional, Salmonella enterica subsp. enterica serovar Typhimurium
Salmonella typhimurium [37] = assay: Antimicrobial activity against Salmonella typhimurium ATCC 14028 assessed as reduction in microbial growth in presence of cuminaldehyde by CLSI based broth microdilution method; type: functional, Salmonella enterica subsp. enterica serovar Typhimurium; conditions: Salmonella enterica
[38] = system: Staphylococcus epidermidis; assay: Synergistic antimicrobial activity against Staphylococcus epidermidis 12228 assessed as fractional inhibitory concentration index in presence of thymol by checkerboard broth microdilution assay; type: functional
Escherichia coli [39] = assay: Antimicrobial activity against Escherichia coli 078 assessed as cuminaldehyde MIC by CLSI based broth microdilution method; type: functional; conditions: 78
Escherichia coli [40] = assay: Synergistic antimicrobial activity against Escherichia coli ATCC 25922 assessed as fractional inhibitory concentration by checkerboard broth microdilution assay; type: functional
Escherichia coli [41] = assay: Antimicrobial activity against Escherichia coli K88 assessed as cuminaldehyde MIC by CLSI based broth microdilution method; type: functional
Staphylococcus aureus [42] = assay: Synergistic antimicrobial activity against Staphylococcus aureus 29213 assessed as fractional inhibitory concentration index in presence of thymol by checkerboard broth microdilution assay; type: functional
Escherichia coli [43] = assay: Synergistic antimicrobial activity against Escherichia coli K99 assessed as fractional inhibitory concentration index in presence of perillaldehyde by checkerboard broth microdilution assay; type: functional
Escherichia coli [44] = assay: Synergistic antimicrobial activity against Escherichia coli 078 assessed as fractional inhibitory concentration by checkerboard broth microdilution assay; type: functional

SMILES: CC[C@H](C)[C@H](NC(=O)[C@@H](NC(=O)[C@@H](CCCNC(=N)N)NC(=O)[C@H](C)NC(=O)[C@H](C)NC(=O)[C@@H](N)Cc1cccc2ccccc12)[C@@H](C)CC)C(=O)N[C@@H](CC(C)C)C(=O)N[C@H](CCCNC(=N)N)C(=O)N[C@@H](Cc1c[nH]c2ccccc12)C(=O)N[C@H](CCCNC(=N)N)C(=O)N[C@@H](Cc1ccccc1)C(=O)N[C@@H](CCCNC(=N)N)C(=O)O
- FIC (Salmonella typhimurium [1]): 0.25
- fractional inhibitory concentration index (FICI) (Escherichia coli [2]): 0.5
- FIC (Enterococcus faecalis [3]): 0.125
- fractional inhibitory concentration index (FICI) (Escherichia coli [4]): 0.156
- MIC (Pseudomonas aeruginosa [5]): 512 µg/mL
- Ratio (Escherichia coli [6]): 2
- fractional inhibitory concentration index (FICI) (Escherichia coli [7]): 0.375
- fractional inhibitory concentration index (FICI) (Escherichia coli [8]): 0.313
- fractional inhibitory concentration index (FICI) (Escherichia coli [9]): 0.094
- fractional inhibitory concentration index (FICI) (Staphylococcus aureus [10]): 0.75
- fractional inhibitory concentration index (FICI) (Enterococcus faecalis [11]): 0.625
- fractional inhibitory concentration index (FICI) (Escherichia coli [12]): 0.156
- fractional inhibitory concentration index (FICI) (Escherichia coli [13]): 0.281
- fractional inhibitory concentration index (FICI) (Salmonella typhimurium [14]): 0.254
- MIC (Enterococcus faecalis [15]): 512 µg/mL
- MIC (Pseudomonas aeruginosa [16]): 32 µg/mL
- MIC (Escherichia coli [17]): 1 µg/mL
- fractional inhibitory concentration index (FICI) (Salmonella typhimurium [18]): 0.313
- fractional inhibitory concentration index (FICI) (Escherichia coli [19]): 0.5
- fractional inhibitory concentration index (FICI) (Staphylococcus aureus [20]): 0.375
- FIC (Escherichia coli [21]): 0.063
- fractional inhibitory concentration index (FICI) (Salmonella typhimurium [22]): 0.5
- fractional inhibitory concentration index (FICI) (Salmonella typhimurium [23]): 0.125
- MIC [24]: 16 µg/mL
- MIC (Staphylococcus aureus [25]): 512 µg/mL
- fractional inhibitory concentration index (FICI) (Staphylococcus aureus [26]): 0.75
- fractional inhibitory concentration index (FICI) (Escherichia coli [27]): 0.25
- fractional inhibitory concentration index (FICI) (Escherichia coli [28]): 0.516
- FIC (Pseudomonas aeruginosa [29]): 0.125
- fractional inhibitory concentration index (FICI) (Escherichia coli [30]): 0.266
- MIC (Escherichia coli [31]): 0.25 µg/mL
- fractional inhibitory concentration index (FICI) (Escherichia coli [32]): 0.313
- MIC (Salmonella typhimurium [33]): 1020 µg/mL
- fractional inhibitory concentration index (FICI) (Enterococcus faecalis [34]): 0.375
- fractional inhibitory concentration index (FICI) (Staphylococcus aureus [35]): 0.25
- FIC (Salmonella typhimurium [36]): 0.063
- MIC (Salmonella typhimurium [37]): 0.5 µg/mL
- fractional inhibitory concentration index (FICI) [38]: 0.75
- MIC (Escherichia coli [39]): 1020 µg/mL
- FIC (Escherichia coli [40]): 0.125
- MIC (Escherichia coli [41]): 1020 µg/mL
- fractional inhibitory concentration index (FICI) (Staphylococcus aureus [42]): 0.25
- fractional inhibitory concentration index (FICI) (Escherichia coli [43]): 0.375
- FIC (Escherichia coli [44]): 0.063
